From patent publication US11680056B2, “MK2 inhibitors and uses thereof” (Xinthera, Inc., priority 2021, dated 2023)
Where two headings read alike, the source gives them in different places.

Key:
p38a/MK2 = p38a/MK2 (Homo sapiens (Human), UniProt P49137+Q16539); assay: p38a/MK2 biochemical assay: activation of MK2 by p38, FITC-HSP27 peptide phosphorylation (IMAP FP); conditions: 10-point 1:3 dilution, 60 pM active p38a, 1 nM inactive MK2, 10 μM ATP, 2 h incubation
Procedure: (§1) Expression vectors of the recombinant MK2 and PRAK kinases were constructed by cloning of the codon optimized gene sequences of MK2 (Uniprot ID P49137, amino acid fragment F46-H400), or PRAK (Uniprot ID Q81W41, amino acid fragment M1-Q471) into pGEX-4T1 (GE) for over expression of these kinases with N-terminal GST-tag. Protein expression was carried out in E. coli BL21 by growing the hosts in TB medium, induction of protein expression with 0.5 mM IPTG at approximate 0.8 OD600, and incubation of the cultures at 18° C. for 14-20 hours afterwards. The harvested cells were resuspended in […] of Lysis buffer (50 mM Tris-HCl, pH 8.0, 500 mM NaCl, 1 mM DTT, 5% glycerol, and 1 mM PMSF) per gram of wet cell mass and homogenized at 4° C. in a microfluidizer (ATS, Suzhou, China) at 14,000 psi pressure, 3 passes. The cell lysates were clarified by centrifugation and the supernatants containing the GST-fusion proteins were purified by affinity chromatography using GSH-Sepharose (GE) gravity flow columns pre-equilibrated in Buffer A (50 mM Tris-HCl, pH 8.0, 500 mM NaCl, 1 mM DTT, and 5% glycerol). After thorough washing of the columns with Buffer A, the bound GST-proteins were eluted by Buffer B (50 mM Tris, pH 8.0, 500 mM NaCl, 1 mM DTT, 5% glycerol, 10 mM glutathione), followed by size-exclusion purification on Superdex 200 column equilibrated in Buffer A. The purified proteins were concentrated to approximately 1 mg/ml and stored at −80° C.
This study evaluates the inhibitory potency of invention compound on p38/MK2 pathway vs p38/PRAK pathway. More specially the compound concentration (IC50) was determined that inhibited half of the maximal activation of MK2 or PRAK by p38. MK2 activation study was set up without or with a serial of 10-point 1:[…], and PRAK activation study was set up without or with a serial of 10-point 1:3 dilution of invention compound at top dose of 300 μM. The MK2 and PRAK activity were determined by the phosphorylation level of HSP27 peptide conjugated with FITC.
(§2) After 2 h incubation of the reaction mixture with various concentration of invention compound (200 nL), 60 μL 1×IMAP solution Mixture (Molecular Devices, Cat R8127) was added to the reaction mixture and incubated for another half hour. The signal was then read by Synergy™ Neo2 Multi-Mode Microplate Reader with filter setting (Ex/Em=485 nm/FITC FP-P pol 528 nm & FITC FP-S pol 528 nm)
(§3) The signal was then normalized to vehicle control and fitted in Xfit to generate IC50. The selectivity of MK2 over PRAK was calculated by the formular Selectivity=IC50 of PRAK/IC50 of MK2.

p38a/PRAK = p38a/PRAK (Homo sapiens (Human), UniProt Q16539); assay: p38a/PRAK biochemical assay: activation of PRAK by p38, FITC-HSP27 peptide phosphorylation (IMAP FP); conditions: 10-point 1:3 dilution, top dose 300 μM, 60 pM active p38a, 1 nM inactive PRAK, 10 μM ATP, 2 h incubation; for IC50: read-out: p38a/PRAK Enzyme pIC50 (converted)
Chain of p38a/PRAK (Q16539 whole entry): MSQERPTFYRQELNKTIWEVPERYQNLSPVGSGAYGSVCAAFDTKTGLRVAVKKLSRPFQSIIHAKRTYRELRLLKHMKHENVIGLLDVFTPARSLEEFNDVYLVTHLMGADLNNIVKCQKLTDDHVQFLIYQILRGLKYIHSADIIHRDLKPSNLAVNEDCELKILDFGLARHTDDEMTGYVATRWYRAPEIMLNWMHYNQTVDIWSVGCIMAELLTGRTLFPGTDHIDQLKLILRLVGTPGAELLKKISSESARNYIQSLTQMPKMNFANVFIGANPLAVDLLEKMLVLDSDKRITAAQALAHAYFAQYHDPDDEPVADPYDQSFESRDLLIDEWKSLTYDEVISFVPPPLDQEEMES
Procedure: as §1
This study evaluates the inhibitory potency of invention compound on p38/MK2 pathway vs p38/PRAK pathway. More specially the compound concentration (IC50) was determined that inhibited half of the maximal activation of MK2 or PRAK by p38. MK2 activation study was set up without or with a serial of 10-point 1:3 dilution of invention compound at top dose of […], and PRAK activation study was set up without or with a serial of 10-point 1:3 dilution of invention compound at top dose of 300 μM. The MK2 and PRAK activity were determined by the phosphorylation level of HSP27 peptide conjugated with FITC.
as §2, §3

[1] = top dose 1 μM, read-out: p38a/MK2 (1 μM) Enzyme pIC50 (converted)
[2] = top dose 10 μM, read-out: p38a/MK2 (10 μM) Enzyme pIC50 (converted)

Chain of p38a/MK2 (P49137 46-400): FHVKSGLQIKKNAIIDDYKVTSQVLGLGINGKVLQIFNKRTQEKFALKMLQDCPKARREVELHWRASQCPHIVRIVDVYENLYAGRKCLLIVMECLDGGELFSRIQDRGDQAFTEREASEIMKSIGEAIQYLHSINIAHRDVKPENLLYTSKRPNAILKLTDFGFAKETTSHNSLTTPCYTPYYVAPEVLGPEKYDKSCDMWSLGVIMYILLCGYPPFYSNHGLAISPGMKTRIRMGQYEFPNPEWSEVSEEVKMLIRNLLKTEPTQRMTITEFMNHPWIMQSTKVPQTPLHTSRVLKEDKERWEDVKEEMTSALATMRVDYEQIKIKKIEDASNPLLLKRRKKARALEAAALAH
Chain of p38a/MK2 (Q16539 whole entry, the tested form may be a part): as the sequence (Q16539 whole entry) above

IC50 (p38a/MK2; [1])	IC50 (p38a/PRAK)	IC50 (p38a/MK2; [2])	p38a/PRAK Enzyme pIC50 (p38a/PRAK)	SMILES	p38a/MK2 (10 μM) Enzyme pIC50 (p38a/MK2; top dose 10 μM)
> 1000 nM	> 316 µM			Cc1cnc(-c2ccnc(C(C)(C)O)c2F)cc1-n1c(C)cc(OCc2ncc(F)cc2F)c(Cl)c1=O (atropisomer, axis not shown) [Example 56B, 3-chloro-4-[(3,5-difluoropyridin-2-yl)methoxy]-1-[3′-fluoro-2′-(2-hydroxypropan-2-yl)-5-methyl-[2,4′-bipyridin]-4-yl]-6-methylpyridin-2-one]	
63.1 nM	10 µM			COCC(C)(O)c1nccc(-c2cc(-n3c(C)cc(OCc4ncc(F)cc4F)c(Cl)c3=O)c(C)cn2)n1 (racemic) [Example 55, 3-chloro-4-[(3,5-difluoropyridin-2-yl)methoxy]-2′-[2-(2-hydroxy-1-methoxypropan-2-yl)pyrimidin-4-yl]-5′,6-dimethyl-[1,4′-bipyridin]-2-one]	
10 nM	3.98 µM			Cc1cnc(-c2ccnc(C3(O)CC3)n2)cc1-n1c(C)cc(OCc2ncc(F)cc2F)c(Cl)c1=O (single isomer, unassigned) [Example 3A, rel-3-chloro-4-[(3,5-difluoropyridin-2-yl)methoxy]-2′-[2-(1-hydroxycyclopropyl)pyrimidin-4-yl]-5′,6-dimethyl-[1,4′-bipyridin]-2-one]	
	> 316 µM	> 10000 nM		Cc1cnc(-c2ccnc(C3(O)CC3)n2)cc1-n1c(C)cc(OCc2ncc(F)cc2F)c(Cl)c1=O (single isomer, unassigned) [Example 3B, rel-3-chloro-4-[(3,5-difluoropyridin-2-yl)methoxy]-2′-[2-(1-hydroxycyclopropyl)pyrimidin-4-yl]-5′,6-dimethyl-[1,4′-bipyridin]-2-one]	
5.01 nM	10 µM			Cc1cnc(-c2ccnc([C@](C)(O)C3CC3)n2)cc1-n1c(C)cc(OCc2ncc(F)cc2F)c(Cl)c1=O (single isomer, unassigned) [Example 6B, rel-3-chloro-2′-[2-(1-cyclopropyl-1-hydroxyethyl)pyrimidin-4-yl]-4-[(3,5-difluoropyridin-2-yl)methoxy]-5′,6-dimethyl-[1,4′-bipyridin]-2-one]	
	> 316 µM	3160 nM		Cc1cnc(-c2ccnc([C@](C)(O)C3CC3)n2)cc1-n1c(C)cc(OCc2ncc(F)cc2F)c(Cl)c1=O (single isomer, unassigned) [Example 6C, rel-3-chloro-2′-[2-(1-cyclopropyl-1-hydroxyethyl)pyrimidin-4-yl]-4-[(3,5-difluoropyridin-2-yl)methoxy]-5′,6-dimethyl-[1,4′-bipyridin]-2-one]	
3.98 nM	3.16 µM			Cc1cnc(-n2ccc(C(C)(C)O)n2)cc1-n1c(C)cc(OCc2ncc(F)cc2F)c(Cl)c1=O (single isomer, unassigned) [Example 9A, rel-3-chloro-4-((3,5-difluoropyridin-2-yl)methoxy)-2′-(3-(2-hydroxypropan-2-yl)-1H-pyrazol-1-yl)-5′,6-dimethyl-2H-[1,4′-bipyridin]-2-one]	
	25.1 µM	158 nM		Cc1cnc(-c2ccc3c(n2)[C@H](O)CC3)cc1-n1c(C)cc(OCc2ncc(F)cc2F)c(Cl)c1=O (single isomer, unassigned) [Example 18A]	
	> 316 µM	> 10000 nM		Cc1cnc(-c2ccc3c(n2)[C@@H](O)CC3)cc1-n1c(C)cc(OCc2ncc(F)cc2F)c(Cl)c1=O (single isomer, unassigned) [Example 18B]	
			<3.5	Cc1cnc(-c2ccc3c(n2)[C@@H](O)CC3)cc1-n1c(C)cc(OCc2ncc(F)cc2F)c(Cl)c1=O (single isomer, unassigned) [Example 18C]	<5.0
	3.16 µM	79.4 nM		Cc1cnc(-c2ccc3c(n2)[C@H](O)CC3)cc1-n1c(C)cc(OCc2ncc(F)cc2F)c(Cl)c1=O (single isomer, unassigned) [Example 18D]	
	> 316 µM	> 10000 nM		Cc1cnc(-c2ccnc(C3(CO)CC3)n2)cc1-n1c(C)cc(OCc2ncc(F)cc2F)c(Cl)c1=O (single isomer, unassigned) [Example 21A, rel-3-chloro-4-((3,5-difluoropyridin-2-yl)methoxy)-2′-(2-(1-(hydroxymethyl)cyclopropyl)pyrimidin-4-yl)-5′,6-dimethyl-2H-[1,4′-bipyridin]-2-one]	

SMILES	IC50 (p38a/MK2; [1])	IC50 (p38a/PRAK)	IC50 (p38a/MK2; [2])	p38a/PRAK Enzyme pIC50 (p38a/PRAK)	p38a/MK2 (10 μM) Enzyme pIC50 (p38a/MK2; top dose 10 μM)
Cc1cnc(-c2ccnc([C@@](C)(O)C3CC3)n2)cc1-n1c(C)cc(OCc2ncc(F)cc2F)c(Cl)c1=O (racemic) [Example 6, 3-chloro-2′-[2-(1-cyclopropyl-1-hydroxyethyl)pyrimidin-4-yl]-4-[(3,5-difluoropyridin-2-yl)methoxy]-5′,6-dimethyl-[1,4′-bipyridin]-2-one]		12.6 µM			7.5
Cc1cnc(-c2ccnc(C(C)(C)CO)n2)cc1-n1c(C)cc(OCc2ncc(F)cc2F)c(Cl)c1=O (single isomer, unassigned) [Example 4A, rel-3-chloro-4-[(3,5-difluoropyridin-2-yl)methoxy]-2′-[2-(1-hydroxy-2-methylpropan-2-yl)pyrimidin-4-yl]-5′,6-dimethyl-[1,4′-bipyridin]-2-one]	1.58 nM	3.98 µM			
Cc1cnc(-c2ccnc(C(C)(C)CO)n2)cc1-n1c(C)cc(OCc2ncc(F)cc2F)c(Cl)c1=O (single isomer, unassigned) [Example 4B, rel-3-chloro-4-[(3,5-difluoropyridin-2-yl)methoxy]-2′-[2-(1-hydroxy-2-methylpropan-2-yl)pyrimidin-4-yl]-5′,6-dimethyl-[1,4′-bipyridin]-2-one]		> 316 µM	794 nM		
Cc1cnc(-c2ccnc(C(C)(C)C(F)F)n2)cc1-n1c(C)cc(OCc2ncc(F)cc2F)c(Cl)c1=O (single isomer, unassigned) [Example 5A, rel-3-chloro-2′-[2-(1,1-difluoro-2-methylpropan-2-yl)pyrimidin-4-yl]-4-[(3,5-difluoropyridin-2-yl)methoxy]-5′,6-dimethyl-[1,4′-bipyridin]-2-one]		2.51 µM	6.31 nM		
Cc1cnc(-c2ccnc(C(C)(C)C(F)F)n2)cc1-n1c(C)cc(OCc2ncc(F)cc2F)c(Cl)c1=O (single isomer, unassigned) [Example 5B, rel-3-chloro-2′-[2-(1,1-difluoro-2-methylpropan-2-yl)pyrimidin-4-yl]-4-[(3,5-difluoropyridin-2-yl)methoxy]-5′,6-dimethyl-[1,4′-bipyridin]-2-one]		> 316 µM	2000 nM		
Cc1cnc(-c2ccnc([C@@](C)(O)C3CC3)n2)cc1-n1c(C)cc(OCc2ncc(F)cc2F)c(Cl)c1=O (single isomer, unassigned) [Example 6A, rel-3-chloro-2′-[2-(1-cyclopropyl-1-hydroxyethyl)pyrimidin-4-yl]-4-[(3,5-difluoropyridin-2-yl)methoxy]-5′,6-dimethyl-[1,4′-bipyridin]-2-one]		10 µM	25.1 nM		
Cc1cnc(-c2ccnc([C@@](C)(O)C3CC3)n2)cc1-n1c(C)cc(OCc2ncc(F)cc2F)c(Cl)c1=O (single isomer, unassigned) [Example 6D, rel-3-chloro-2′-[2-(1-cyclopropyl-1-hydroxyethyl)pyrimidin-4-yl]-4-[(3,5-difluoropyridin-2-yl)methoxy]-5′,6-dimethyl-[1,4′-bipyridin]-2-one]		> 316 µM	2510 nM		
